# Measured values reported in patent US20080103173A1, “Compounds Having Activity At Nk3 Receptor And Uses Thereof In Medicine” (SMITHKLINE BEECHAM CORPORATION, priority 2004, published 2008).
# Target: T1, NK3 receptor (Homo sapiens, UniProt P29371)
# T1 construct: expressed in transfected cells; host or cells: CHO cell lines (plasma membranes)
# T1 sequence (P29371 1-465): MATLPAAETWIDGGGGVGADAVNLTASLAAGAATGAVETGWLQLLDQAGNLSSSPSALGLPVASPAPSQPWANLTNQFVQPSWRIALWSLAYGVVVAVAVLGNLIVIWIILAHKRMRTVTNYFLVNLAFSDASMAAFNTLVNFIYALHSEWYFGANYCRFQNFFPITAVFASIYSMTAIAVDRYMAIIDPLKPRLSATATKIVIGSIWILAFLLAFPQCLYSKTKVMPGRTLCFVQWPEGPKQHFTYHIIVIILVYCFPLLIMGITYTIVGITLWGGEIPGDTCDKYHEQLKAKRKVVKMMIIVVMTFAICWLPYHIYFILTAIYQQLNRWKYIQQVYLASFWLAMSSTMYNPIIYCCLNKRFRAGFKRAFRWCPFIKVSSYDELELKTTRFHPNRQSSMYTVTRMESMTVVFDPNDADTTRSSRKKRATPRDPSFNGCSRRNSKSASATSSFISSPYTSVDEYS
# Test: NK3 binding affinity, scintillation proximity assay (SPA), 125I [MePhe7]-NKB
# Conditions: membranes from CHO cell lines expressing NK3 receptors; radioligand 125I [MePhe7]-NKB
# Experimental: a) Measurement of NK3 Binding Affinity
# The NK3 binding affinity of the compounds of the invention was determined using the following scintillation proximity assay (SPA) (see H. M. Sarau et al, J. Pharmacol. Experimental Therapeutics 1997, 281(3), 1303-1311; H. M. Sarau et al, J. Pharmacol. Experimental Therapeutics 2000, 295(1), 373-381; G. A. M. Giardina et al J. Med. Chem 1999, 42, 1053-1065). Polystyrene Leadseeker WGA-SPA beads (Amersham Biosciences) were mixed with plasma membrane prepared from CHO cell lines expressing NK3 receptors in a bead/membrane ratio of 20:1 (w/w) in assay buffer (75 mM Tris pH 7.8, 75mM NaCl, 4 mM MnCl2, 1 mM EDTA, 0.05% Chaps, 1 mM PMSF). The mixture was placed on ice for 20 minutes to allow the formation of membrane/bead complex before BSA was added to a final concentration of 1%. After another 20 minutes incubation on ice, the bead/membrane complex was washed twice and suspended in assay buffer. ^125I [MePhe7]-NKB was then added to the bead/membrane complex. […] After 2-3 hours incubation at room temperature with shaking, the plates were spun for 2 min at 1100 rpm and measured in Viewlux imager (PerkinElmer) for 5 minutes with a 618-nm filter. Inhibition of the radioactive ligand binding to the NK3 receptor was measured by the reduction of signal. pKi was calculated using Kd of the radioactive ligand determined in a separate experiment.
compound,measurement,value
"O=C(N[C@H](c1cccc(F)c1)C1CC1)c1c(CN2CCCC2=O)c(-c2ccccc2)nc2ccccc12 [Example 1, N-[(S)-Cyclopropyl(3-fluorophenyl)methyl]-3-[(2-oxo-1-pyrrolidinyl)methyl]-2-phenyl-4-quinolinecarboxamide]",Ki,3.16 nM
